Columns and labels:
[1] = target: T1, GDP-loaded KRAS (1-169) G12C, C51S, C80L, C118S (Homo sapiens, UniProt P01116, C118S/C51S/C80L/G12C); experiment: Mass Spectrometry Reactivity Assay (MSRA): covalent adduct of compound and KRAS G12C, Percent Modification; assay type: binding; conditions: for MSRA (% modification) 10 μM 0.50 hr / MSRA (% modification) 10 μM 0.25 hr: 10 μM compound; for MSRA (% modification) 5.0 μM 0.25 hr: 5.0 μM compound
T1 construct: GDP-loaded KRAS (1-169) G12C, C51S, C80L, C118S
Procedure, shortened: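 GDP-loaded KRAS(1-169) G12C/C51S/C80L/C118S at 5 μM in 25 mM Hepes pH 7.5, 200 mM NaCl, 5% glycerol incubated at RT with compound (typically 5 or 10 μM final, 1% DMSO). Quenched in formic acid at 1-60 min; intact-protein LC-TOF MS gives % modification = modified/(modified+unmodified).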

KRAS G12C = KRAS G12C (Homo sapiens, UniProt P01116, G12C); experiment: Cell Activity Assay: accumulation of GDP-bound KRAS G12C in MIAPaCa-2 cells (Raf-1 RBD capture, MSD readout); assay type: cell-based; parameters: endogenous in cells; host or cells: MIAPaCa-2; conditions: 6 hours, assay limit is 30.00
Procedure, shortened: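 MIAPaCa-2 cells exposed 6 h at 37 °C to 3-fold compound dilutions (0.3% DMSO final), then lysed. Active GTP-KRAS captured on Raf-1 RBD-coated plates, detected with anti-pan-Ras and SULFO-TAG secondary by MSD electrochemiluminescence. Signal normalized to DMSO and maximum inhibition; IC50 from 4-parameter fit.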

SMILES | MSRA (% modification) 10 μM 0.50 hr [1] [%] | IC50 (KRAS G12C) [µM] | MSRA (% modification) 10 μM 0.25 hr [1] [%] | MSRA (% modification) 5.0 μM 0.25 hr [1] [%]
C=CC(=O)N1CCN(c2nc(NCC3CC(=O)N(C)C3)nc3c(Oc4c(C)ccc5[nH]ncc45)cccc23)CC1 (stereo not shown) [Example 04F, 4-[({4-(4-acryloylpiperazin-1-yl)-8-[(5-methyl-1H-indazol-4-yl)oxy]quinazolin-2-yl}amino)methyl]-1-methylpyrrolidin-2-one] | 43 | 7.28 |  | 
C=CC(=O)N1CCN(c2nc(OC[C@@H]3CCCN3C)nc3c(Oc4c(Cl)c(F)cc5[nH]ncc45)nc(Cl)cc23)C[C@H]1C [Example 04G, 1-[(2R)-4-(6-chloro-8-[(5-chloro-6-fluoro-1H-indazol-4-yl)oxy]-2-{[(2S)-1-methylpyrrolidin-2-yl]methoxy}pyrido[3,4-d]pyrimidin-4-yl)-2-methylpiperazin-1-yl]prop-2-en-1-one] |  | 0.393 | 49 | 
C=CC(=O)N1CCN(c2nc(OC[C@H]3CCOC3)nc3c(Oc4c(Cl)c(F)cc5[nH]ncc45)nccc23)CC1 [Example 04H, 1-(4-{8-[(5-chloro-6-fluoro-1H-indazol-4-yl)oxy]-2-[(3S)-tetrahydrofuran-3-ylmethoxy]pyrido[3,4-d]pyrimidin-4-yl}piperazin-1-yl)prop-2-en-1-one] |  | 0.465 | 73 | 65
C=CC(=O)N1CCN(c2nc(OC[C@@H]3CCCN3C)nc3c(Oc4c(C)c(F)cc5[nH]ncc45)nccc23)CC1 [Example 04I, 1-[4-(8-[(6-fluoro-5-methyl-1H-indazol-4-yl)oxy]-2-{[(2S)-1-methyl-pyrrolidin-2-yl]methoxy}pyrido [3,4-d]pyrimidin-4-yl)piperazin-1-yl]prop-2-en-1-one] |  | 0.375 |  | 55
C=CC(=O)N1CCN(c2nc(OC[C@H]3CCCN3C(C)=O)nc3c(Oc4c(Cl)c(F)cc5[nH]ncc45)nccc23)CC1 [Example 04J, 1-[4-(2-{[(2R)-1-acetylpyrrolidin-2-yl]methoxy}-8-[(5-chloro-6-fluoro-1H-indazol-4-yl)oxy]pyrido[3,4-d]pyrimidin-4-yl)piperazin-1-yl]prop-2-en-1-one] |  | 0.989 |  | 64
C=CC(=O)N1CCN(c2ncnc3c(Nc4c(C)ccc5[nH]ncc45)nccc23)CC1 [Example 05, 1-(4-{8-[(5-methyl-1H-indazol-4-yl)amino]pyrido[3,4-d]pyrimidin-4-yl}piperazin-1-yl)prop-2-en-1-one] | 5 | 29.3 |  | 
C=CC(=O)N1CCN(c2ncnc3c(Oc4c(Cl)ccc5[nH]ncc45)nc(C)cc23)CC1 [Example 05A, 1-(4-{8-[(5-chloro-1H-indazol-4-yl)oxy]-6-methylpyrido[3,4-d]pyrimidin-4-yl}piperazin-1-yl)prop-2-en-1-one] | 12 | 8.41 |  | 
C=CC(=O)N1CCN(c2nc(N3CC(N(C)C)C3)nc3c(Oc4c(C)ccc5[nH]ncc45)nc(C)cc23)[C@@H](C)C1 [Example 05B, 1-[(3S)-4-{2-[3-(dimethylamino)azetidin-1-yl]-6-methyl-8-[(5-methyl-1H-indazol-4-yl)oxy]pyrido[3,4-d]pyrimidin-4-yl}-3-methylpiperazin-1-yl]prop-2-en-1-one] | 15 | 4.03 |  | 
C=CC(=O)N1CCN(c2ncnc3c(Oc4c(Cl)c(C)cc5[nH]ncc45)nc(C)cc23)CC1 [Example 05C, 1-(4-{8-[(5-chloro-6-methyl-1H-indazol-4-yl)oxy]-6-methylpyrido[3,4-d]pyrimidin-4-yl}piperazin-1-yl)prop-2-en-1-one] | 61 | 1.29 |  | 
C=CC(=O)N1CCN(c2nc(OCCN(C)C)nc3c(Oc4c(Cl)c(C)cc5[nH]ncc45)nccc23)CC1 [Example 05E, 1-(4-{8-[(5-chloro-6-methyl-1H-indazol-4-yl)oxy]-2-[2-(dimethylamino)ethoxy]pyrido[3,4-d]pyrimidin-4-yl}piperazin-1-yl)prop-2-en-1-one] | 76 | 0.559 | 72 | 
C=CC(=O)N1CCN(c2nc(N(C)CCC(=O)N(C)C)nc3c(Oc4c(C)ccc5[nH]ncc45)cccc23)CC1 [Example 05F, N^3-{4-(4-acryloylpiperazin-1-yl)-8-[(5-methyl-1H-indazol-4-yl)oxy]quinazolin-2-yl}-N,N,N^3-trimethyl-β-alaninamide] | 22 | 28.5 |  | 
C=CC(=O)N1CCN(c2nc(N3CC(N(C)C)C3)nc3c(Oc4c(Cl)c(F)cc5[nH]ncc45)nc(Cl)cc23)CC1 [Example 05G, 1-(4-{6-chloro-8-[(5-chloro-6-fluoro-1H-indazol-4-yl)oxy]-2-[3-(dimethylamino)azetidin-1-yl]pyrido[3,4-d]pyrimidin-4-yl}piperazin-1-yl)prop-2-en-1-one] | 82 | 0.164 | 81 | 80
C=CC(=O)N1CCN(c2nc(OC[C@@H]3CCOC3)nc3c(Oc4c(Cl)c(F)cc5[nH]ncc45)nccc23)CC1 [Example 05H, 1-(4-{8-[(5-chloro-6-fluoro-1H-indazol-4-yl)oxy]-2-[(3R)-tetrahydrofuran-3-ylmethoxy]pyrido[3,4-d]pyrimidin-4-yl}piperazin-1-yl)prop-2-en-1-one] |  | 0.414 | 68 | 54
C=CC(=O)N1CCN(c2nc(Oc3cccnc3C(C)C)nc3c(Oc4c(Cl)c(F)cc5[nH]ncc45)nccc23)CC1 [Example 05I, 1-[4-(8-[(5-chloro-6-fluoro-1H-indazol-4-yl)oxy]-2-{[2-(propan-2-yl)pyridin-3-yl]oxy}pyrido [3,4-d]pyrimidin-4-yl)piperazin-1-yl]prop-2-en-1-one] |  | 0.074 |  | 70
C=CC(=O)N1CCN(c2nc(OCC3CCN(C(C)=O)C3)nc3c(Oc4c(Cl)c(F)cc5[nH]ncc45)nccc23)CC1 (stereo not shown) [Example 05J, 1-(4-{2-[(1-acetylpyrrolidin-3-yl)methoxy]-8-[(5-chloro-6-fluoro-1H-indazol-4-yl)oxy]pyrido[3,4-d]pyrimidin-4-yl}piperazin-1-yl)prop-2-en-1-one] |  | 1.07 |  | 81
C=CC(=O)N1CCN(c2ncnc3c(Oc4cc(O)cc5ccccc45)nccc23)CC1 [Example 06, 1-(4-{8-[(3-Hydroxynaphthalen-1-yl)oxy]pyrido[3,4-d]pyrimidin-4-yl}piperazin-1-yl)prop-2-en-1-one] | 20 | 29.7 |  | 
C=CC(=O)N1CCN(c2ncnc3c(Oc4c(Cl)ccc5[nH]ncc45)nccc23)CC1 [Example 06A, 1-(4-{8-[(5-chloro-1H-indazol-4-yl)oxy]pyrido[3,4-d]pyrimidin-4-yl}piperazin-1-yl)prop-2-en-1-one] | 26 | 6.75 |  | 
C=CC(=O)N1C[C@H](C)N(c2nc(N3CC(N(C)C)C3)nc3c(Oc4c(C)ccc5[nH]ncc45)nc(C)cc23)C[C@H]1C [Example 06B, 1-[(2R,5S)-4-{2-[3-(Dimethylamino)azetidin-1-yl]-6-methyl-8-[(5-methyl-1H-indazol-4-yl)oxy]pyrido[3,4-d]pyrimidin-4-yl}-2,5-dimethylpiperazin-1-yl]prop-2-en-1-one] | 9 | > 30 |  | 
C=CC(=O)N1CCN(c2ncnc3c(Oc4c(Cl)c(C)cc5[nH]ncc45)cccc23)CC1 [Example 06C, 1-(4-{8-[(5-chloro-6-methyl-1H-indazol-4-yl)oxy]quinazolin-4-yl}piperazin-1-yl)prop-2-en-1-one] | 53 | 1.62 |  | 
C=CC(=O)N1CCN(c2nc(OC[C@H]3CCCN3C)nc3c(Oc4c(C)ccc5[nH]ncc45)cccc23)CC1 [Example 06E, 1-[4-(8-[(5-methyl-1H-indazol-4-yl)oxy]-2-{[(2R)-1-methylpyrrolidin-2-yl]methoxy}quinazolin-4-yl)piperazin-1-yl]prop-2-en-1-one] | 75 | 0.585 | 70 | 35
C=CC(=O)N1CCN(c2nc(NCCC(=O)N(C)C)nc3c(Oc4c(C)ccc5[nH]ncc45)cccc23)CC1 [Example 06F, N^3-{4-(4-acryloylpiperazin-1-yl)-8-[(5-methyl-1H-indazol-4-yl)oxy]quinazolin-2-yl}-N,N-dimethyl-β-alaninamide] | 46 | 3.24 |  | 

Reference: US10662204B2 (PFIZER INC., priority 2018, dated 2020)
